Results published in US8329063B2, “Low-emission formaldehyde donor preparations” (Air Liquide Sante (International), priority 2004, dated 2012).

Columns and labels:
[1] = Determining formaldehyde in the gas phase above preservatives (Dräger tubes 0.2/a); assay type: physicochemical
Method: 1. Method of Determining Formaldehyde in the Gas Phase
(§1) • The determination of the formaldehyde content in the gas phase above various preservatives was carried out using Dräger tubes 0.2/a (No. 6733081) in accordance with the instructions for use from Dräger Safety AG & Co. KGaA (9th Edition, July 2001). For this purpose, about 100 g of the sample to be investigated were introduced into a 250 ml wide-necked beaker with a screw lid and left to stand, in the closed state, for at least 3 hours at room temperature. The measurement was read off after 2 strokes on the scale 0.5 to 5 ppm, n=10. […] 2. Method of Determining Ammonia (Amine) in the Gas Phase • The determination of the amine content in the gas phase above various preservatives was carried out using Dräger tubes 2/a (No. 6733231) in accordance with the instructions for use from Dräger Safety AG & Co. KGaA (9th Edition, July 2001). For this purpose, about 100 g of the sample to be investigated were introduced into a 250 ml wide-necked beaker with a screw lid and left to stand, in the closed state, for at least 3 hours at room temperature. The measurement was read off after one stroke on the scale. […] 3. Formaldehyde and Amine Emissions of Preservatives • In the gas phase of preservatives formulated as described below, using the methods described under 1. and 2., the following formaldehyde and amine concentrations were measured in the gas phase (Table 1): • Preservatives A, B and C were prepared by adding urea and monoethylene glycol dissolved in water to Grotan® OX and stripping off the water on a rotary evaporator (2 hours at 60° C. and 30 mbar). Preservative D (comparative) was prepared by adding monoethylene glycol to Grotan® OX.

[2] = Determining ammonia (amine) in the gas phase above preservatives (Dräger tubes 2/a); assay type: physicochemical; details: amine as NH3
Method: as §1

CC1CN(CN2COC(C)C2)CO1 (stereo not drawn) [Example E, N,N′-methylenebis(5-methyloxazolidine)]
ppm of HCHO ([1]; After 2 weeks (gas phase)): 3-5 ppm
ppm of HCHO ([1]; After 11 weeks (gas phase)): 0.7 ppm
ppm of HCHO ([1]; After 4 days (gas phase)): 3 ppm
ppm of amine ([2]; After 2 weeks (gas phase)): 15 ppm
ppm of amine ([2]; After 11 weeks (gas phase)): 13 ppm
ppm of amine ([2]; After 4 days (gas phase)): 10 ppm
